The record followed here is patent US10005774B2, “Syk inhibitors” (Gilead Sciences, Inc., priority 2013, dated 2018).

Values joined by “and” are separate entries in the source; they are usually repeats but may differ in a detail not shown here. Identical values can stand only once.

One assay concerns the target Syk (Homo sapiens, UniProt P43405). Put plainly: High Throughput Syk Biochemical Assay (KinEASE TR-FRET). To be noted: TABLE D, 20 μM ATP, 1 μM biotinylated peptide, 0.015 nM Syk, 30 min at room temperature, read-out: IC50. How it is done: High Throughput Syk Biochemical Assay
Syk activity was measured using KinEASE (Cisbio), a time-resolved fluorescence resonance energy transfer (TR-FRET) immunoassay. In this assay. Syk-catalyzes the phosporylation of a XL665-labeled peptide substrate. Europium conjugated phospho-tyrosine specific antibody binds the resulting phosphorylated peptide. Formation of phosphorylated peptide is quantified by TR-FRET with Europium as the donor and XL665 the acceptor in a 2-step endpoint assay. In brief, test compounds serially diluted in DMSO were delivered into Corning white, low volume, non-binding 384 well plates using the Echo 550 acoustic liquid dispenser (Labcyte®). Syk enzyme and substrates were dispensed into assay plates using a Multi-Flo (Bio-Tek Instruments). […] Percent inhibition was calculated as follows: % Inhibition=100×(RatioSample−Ratio0% Inhibition)/(Ratio100% Inhibition−Ratio0% Inhibition)
(In TR-FRET formats the signal depends on donor and acceptor labels being close together.)
One may read the IC50 as the point on the concentration scale where inhibition reaches its midpoint. As for `C[C@@H](Oc1cc(-c2ccc(N3CCN(C4COC4)CC3)cc2)cc2ncsc12)[C@H]1CNC(=O)C1` (stereo in doubt) [(R)-4-((R)-1-((5-(4-(4-(oxetan-3-yl)piperazin-1-yl)phenyl)benzo[d]thiazol-7-yl)oxy)ethyl)pyrrolidin-2-one], the IC50 turned out to be 0.681 nM.
The same measure, in the same setting: for `COc1ccc(-c2cc3ncn(C4CC4)c3c(O[C@H](C)[C@H]3CNC(=O)C3)n2)cc1OC` [(R)-4-((R)-1-(3-cyclopropyl-6-(3,4-dimethoxyphenyl)-3H-imidazo[4,5-c]pyridin-4-yloxy)ethyl)pyrrolidin-2-one] the value was 1.6 nM; for `C[C@@H](Oc1cc(-c2cccc(C(F)(F)F)n2)cc2ncn(C)c12)[C@H]1CNC(=O)C1` [(R)-4-((R)-1-((1-methyl-5-(6-(trifluoromethyl)pyridin-2-yl)-1H-benzo[d]imidazol-7-yl)oxy)ethyl)pyrrolidin-2-one], 191 nM; for `COc1ccc(-c2cc3ncn(C4CCC4)c3c(O[C@H](C)[C@H]3CNC(=O)C3)n2)cc1OC` [(R)-4-((R)-1-(3-cyclobutyl-6-(3,4-dimethoxyphenyl)-3H-imidazo[4,5-c]pyridin-4-yloxy)ethyl)pyrrolidin-2-one], 23.5 nM.
The same measure, in the same setting: the same measure for `C[C@@H](Oc1nc(-c2ccc(N3CCOCC3)cc2)cc2ncn(C(F)F)c12)[C@H]1CNC(=O)C1` [(R)-4-((R)-1-(3-(difluoromethyl)-6-(4-morpholinophenyl)-3H-imidazo[4,5-c]pyridin-4-yloxy)ethyl)pyrrolidin-2-one]: 1.55 nM and 1.25 nM; for `COCC[C@@H](Oc1nc(-c2cnn(C(C)(C)C)c2)cc2ncn(C)c12)[C@H]1CNC(=O)C1` [(R)-4-((R)-1-(6-(1-tert-butyl-1H-pyrazol-4-yl)-3-methyl-3H-imidazo[4,5-c]pyridin-4-yloxy)-3-methoxypropyl)pyrrolidin-2-one]: 171 nM.
The same measure, in the same setting: the same measure for `COc1ccc(-c2cc3ncn(CC(F)(F)F)c3c(O[C@H](C)[C@H]3CNC(=O)C3)n2)cc1OC` [(R)-4-((R)-1-(6-(3,4-dimethoxyphenyl)-3-(2,2,2-trifluoroethyl)-3H-imidazo[4,5-c]pyridin-4-yloxy)ethyl)pyrrolidin-2-one]: 51.3 nM.
For the compound `C[C@@H](Oc1cc(-c2cnn(C(C)(C)C)c2)cn2ncc(Cl)c12)[C@H]1CNC(=O)C1` [(R)-4-((R)-1-((6-(1-(tert-butyl)-1H-pyrazol-4-yl)-3-chloropyrazolo[1,5-a]pyridin-4-yl)oxy)ethyl)pyrrolidin-2-one], the 50% inhibitory concentration (IC50) was 0.271 nM.
The same measure, in the same setting: the same measure for `C[C@@H](Oc1nc(-c2cnn3ccccc23)cc2ncn(C)c12)[C@H]1CNC(=O)C1` [(R)-4-((R)-1-(3-methyl-6-(pyrazolo[1,5-a]pyridin-3-yl)-3H-imidazo[4,5-c]pyridin-4-yloxy)ethyl)pyrrolidin-2-one]: 12.7 nM; for `C[C@@H](Oc1nc(-c2cnn(C3CCC3)c2)cc2ncn(C)c12)[C@H]1CNC(=O)C1` [(R)-4-((R)-1-(6-(1-cyclobutyl-1H-pyrazol-4-yl)-3-methyl-3H-imidazo[4,5-c]pyridin-4-yloxy)ethyl)pyrrolidin-2-one]: 7.62 nM.
On the same count and under the same terms, for `Cc1cc(-c2cc3ncn(C)c3c(O[C@H](C)[C@H]3CNC(=O)C3)n2)n[nH]1` [(R)-4-((R)-1-(3-methyl-6-(5-methyl-1H-pyrazol-3-yl)-3H-imidazo[4,5-c]pyridin-4-yloxy)ethyl)pyrrolidin-2-one] the value was 22.8 nM; for `CC(C)n1ccc(-c2cc(O[C@H](C)[C@H]3CNC(=O)C3)c3scnc3c2)n1` (stereo in doubt) [(R)-4-((R)-1-((5-(1-isopropyl-1H-pyrazol-3-yl)benzo[d]thiazol-7-yl)oxy)ethyl)pyrrolidin-2-one], 2.52 nM.
Still for that read-out and setting: for `COc1cccc(-c2cc(O[C@H](C)[C@H]3CNC(=O)C3)c3c(c2)ncn3C)n1` [(R)-4-((R)-1-((5-(6-methoxypyridin-2-yl)-1-methyl-1H-benzo[d]imidazol-7-yl)oxy)ethyl)pyrrolidin-2-one] the value was 45.7 nM; for `C[C@@H](Oc1nc(-c2ccc(N3CCNCC3)cc2)cc2ncn(C)c12)[C@H]1CNC(=O)C1` [(R)-4-((R)-1-(3-methyl-6-(4-(piperazin-1-yl)phenyl)-3H-imidazo[4,5-c]pyridin-4-yloxy)ethyl)pyrrolidin-2-one], 8.28 nM.

The same assay, now with this note: table 'ALL NEW COMPOUNDS IN 2014', 20 μM ATP, 1 μM biotinylated peptide, 0.015 nM Syk, 30 min at room temperature, read-out: Syk IC50.
As to `C[C@@H](Oc1cc(-c2ccc(N3CCN(C4COC4)CC3)cn2)cc2ncn(C3CC3)c12)[C@H]1CNC(=O)C1` [(R)-4-((R)-1-((1-cyclopropyl-5-(5-(4-(oxetan-3-yl)piperazin-1-yl)pyridin-2-yl)-1H-benzo[d]imidazol-7-yl)oxy)ethyl)pyrrolidin-2-one], the IC50 is 4.72 nM.
Still for that read-out and setting: for `CCS(=O)(=O)N1CCN(c2ccc(-c3cc4ncn(C5CC5)c4c(O[C@H](C)[C@H]4CNC(=O)C4)n3)cc2)CC1` [(R)-4-((R)-1-((3-cyclopropyl-6-(4-(4-(ethylsulfonyl)piperazin-1-yl)phenyl)-3H-imidazo[4,5-c]pyridin-4-yl)oxy)ethyl)pyrrolidin-2-one] the value was 1.05 nM; for `C[C@@H](Oc1cc(-c2nccs2)cc2ncn(C3CC3)c12)[C@H]1CNC(=O)C1` [(R)-4-((R)-1-((1-cyclopropyl-5-(thiazol-2-yl)-1H-benzo[d]imidazol-7-yl)oxy)ethyl)pyrrolidin-2-one], 9.4 nM; for `Cc1ncc(-c2cc(O[C@H](C)[C@H]3CNC(=O)C3)c3c(c2)ncn3C2CC2)[nH]1`, 20.9 nM.
As for `C[C@@H](Oc1nc(-c2ccc3c(c2)NC(=O)C3)cc2ncn(C3CC3)c12)[C@H]1CNC(=O)C1` [6-(3-cyclopropyl-4-((R)-1-((R)-5-oxopyrrolidin-3-yl)ethoxy)-3H-imidazo[4,5-c]pyridin-6-yl)indolin-2-one], the IC50 amounted to 1.75 nM.
Turning to `C[C@@H](Oc1nc(-c2cnn(CC(C)(C)O)c2)cc2ncn(C3CC3)c12)[C@H]1CNC(=O)C1`, the IC50 is 9.65 nM.
The same measure, in the same setting: for `C[C@@H](Oc1cc(-c2nc(C(C)(C)C)cs2)cc2ncn(C3CC3)c12)[C@H]1CNC(=O)C1` [(R)-4-((R)-1-((5-(4-(tert-butyl)thiazol-2-yl)-1-cyclopropyl-1H-benzo[d]imidazol-7-yl)oxy)ethyl)pyrrolidin-2-one] the value was 0.442 nM; for `C[C@@H](Oc1nc(-c2ccc(N3CCN(C4COC4)CC3)nc2)cc2ncn(C(F)F)c12)[C@H]1CNC(=O)C1` [(R)-4-((R)-1-((3-(difluoromethyl)-6-(6-(4-(oxetan-3-yl)piperazin-1-yl)pyridin-3-yl)-3H-imidazo[4,5-c]pyridin-4-yl)oxy)ethyl)pyrrolidin-2-one], 2.9 nM; for `C[C@@H](Oc1cc(-c2ccc3c(c2)NCC3(C)C)cc2ncn(C3CC3)c12)[C@H]1CNC(=O)C1` [(R)-4-((R)-1-((1-cyclopropyl-5-(3,3-dimethylindolin-6-yl)-1H-benzo[d]imidazol-7-yl)oxy)ethyl)pyrrolidin-2-one], 9.11 nM.
Still for that read-out and setting: the same measure for `C[C@@H](Oc1nc(-c2ccc(N3CCn4cnnc4C3)cc2)cc2ncn(C3CC3)c12)[C@H]1CNC(=O)C1` [(R)-4-((R)-1-((3-cyclopropyl-6-(4-(5,6-dihydro-[1,2,4]triazolo[4,3-a]pyrazin-7(8H)-yl)phenyl)-3H-imidazo[4,5-c]pyridin-4-yl)oxy)ethyl)pyrrolidin-2-one]: 1.3 nM.
Still for that read-out and setting: for `CCOc1cc(-c2cc(O[C@H](C)[C@H]3CNC(=O)C3)c3c(c2)ncn3C2CC2)ccc1OC` [(R)-4-((R)-1-((1-cyclopropyl-5-(3-ethoxy-4-methoxyphenyl)-1H-benzo[d]imidazol-7-yl)oxy)ethyl)pyrrolidin-2-one] the value was 12.9 nM; for `C[C@@H](Oc1cc(-c2ccnn2C2CCOCC2)cc2ncn(C3CC3)c12)[C@H]1CNC(=O)C1` [(R)-4-((R)-1-((1-cyclopropyl-5-(1-(tetrahydro-2H-pyran-4-yl)-1Hpyrazol-5-yl)-1H-benzo[d]imidazol-7-yl)oxy)ethyl)pyrrolidin-2-one], 411 nM; for `C[C@@H](Oc1nc(-c2ccc(N3CCN(S(=O)(=O)C4CC4)CC3)cc2)cc2ncn(C3CC3)c12)[C@H]1CNC(=O)C1` [(R)-4-((R)-1-((3-cyclopropyl-6-(4-(4-(cyclopropylsulfonyl)piperazin-1-yl)phenyl)-3H-imidazo[4,5-c]pyridin-4-yl)oxy)ethyl)pyrrolidin-2-one], 1.3 nM.
For `C[C@@H](Oc1nc(-c2ccccc2)cc2ncn(C3CC3)c12)[C@H]1CNC(=O)C1`, the IC50 was 12.5 nM.
On the same count and under the same terms, for `C[C@@H](Oc1nc(-c2ccc3c(c2)NCC3(C)C)cc2ncn(C3CC3)c12)[C@H]1CNC(=O)C1` [(R)-4-((R)-1-((3-cyclopropyl-6-(3,3-dimethylindolin-6-yl)-3H-imidazo[4,5-c]pyridin-4-yl)oxy)ethyl)pyrrolidin-2-one] the value was 2.33 nM; for `C[C@@H](Oc1cc(-c2ccc(N3CCN(C4COC4)CC3)nn2)cc2ncn(C3CC3)c12)[C@H]1CNC(=O)C1` [(R)-4-((R)-1-((1-cyclopropyl-5-(6-(4-(oxetan-3-yl)piperazin-1-yl)pyridazin-3-yl)-1H-benzo[d]imidazol-7-yl)oxy)ethyl)pyrrolidin-2-one], 11.6 nM.
The same measure, in the same setting: the same measure for `C[C@@H](Oc1nc(-c2ccc3c(C4CC4)n[nH]c3c2)cc2ncn(C3CC3)c12)[C@H]1CNC(=O)C1`: 6.12 nM.
Still for that read-out and setting: for `C[C@@H](Oc1nc(-c2ccc(N3CC4CC(C3)O4)cc2)cc2ncn(C3CC3)c12)[C@H]1CNC(=O)C1` [(4R)-4-((1R)-1-((6-(4-(6-oxa-3-azabicyclo[3.1.1]heptan-3-yl)phenyl)-3-cyclopropyl-3H-imidazo[4,5-c]pyridin-4-yl)oxy)ethyl)pyrrolidin-2-one] the value was 3.21 nM.
